Laboratory results taken from patent publication US20070270350A1, “Methods and Compositions for the Prevention and Treatment of Inflammatory Diseases or Conditions” (MUSC FOUNDATION FOR RESEARCH DEVELOPMENT, priority 2003, published 2007).
Entries after “also recorded” stand apart in the source; their conditions may differ.

Legend:
iNOS [1] = test: LPS/IFN-induced NO production and iNOS expression in C6 glioma cells; format: cell-based, rat; conditions: D-PDMP 10, 25, 50 μM, 0.5 hr pretreatment
Method: C6 rat glioma cells obtained from ATCC were maintained in Dulbecco's modified Eagle's medium (DMEM) (GIBCO, CA) containing 10% fetal bovine serum (FBS) (GIBCO) and 10 ? g/ml gentamicin. All the cultured cells were maintained at 37° C. in 5% CO2/95% air. At 80% confluency, the cells were incubated with serum free DMEM medium for 24 h prior to the incubation with LPS/IFN ? and other chemicals. Assay for NO production. Cells were cultured in 12-well plastic tissue culture plates. After the appropriate treatment, production of NO was determined by an assay of the culture supernatant for nitrite (Green et al., 1982). Briefly, 100 μl of culture supernatant was allowed to react with 100 μl of Griess reagent. The optical density of the assay samples was measured spectrophotometrically at 570 nm. Nitrite concentrations were calculated from a standard curve derived from the reaction of NaNO2 in fresh media. Western Blot Analysis. […] The protein concentration of samples was determined with the detergent compatible protein assay reagent (Bio-Rad Laboratories, CA) using bovine serum albumin (BSA) as the standard. Sample was boiled for 3 min with 0.1 volumes of 10% O-mercaptoethanol and 0.5% bromophenol blue mix. Fifty μg of total cellular protein was resolved by electrophoresis in 8 or 12% polyacrylamide gels, electro-transferred to polyvinylidene difluoride (PVDF) filter and blocked with Tween 20 containing Tris-buffered saline [TBST; 10 mM Trizma base (pH 7.4), 1% Tween 20, and 150 mM NaCl] with 5% skim milk. After incubation with antiserum against iNOS (BD PharMingen, CA), or hRas (Upstate Biotechnology, CA), or phospho-specific MAPK (p42/44) (Signal Transduction), in PVDF buffer for 2 h at room temperature, the filters were washed 3 times with TBST buffer and then incubated with horseradish peroxidase conjugated anti-rabbit or mouse IgG for 1 h. The membranes were autoradiographed by using ECL-plus (Amersham Pharmacia Biotech) after washing with TBST buffer. RT-PCR amplification. […] PCR amplification was conducted in 25 ? l of reaction mixture with 1.0 ? l of cDNA, […] and under the manufacturer's Taq polymerase conditions (Takara, […] Shuzo Co. Ltd, Japan). The sequence of primers used for PCR amplification are as follows; iNOS, (Forward-[NT], Reverse-[NT]), GalT-2 (Forward-[NT], Reverse-[NT]), GAPDH (Forward-[NT], Reverse-[NT]).

iNOS [2] = test: LPS/IFN-induced NO production and iNOS gene expression in primary astrocytes; format: cell-based, rat; conditions: D-PDMP 0, 10, 25, 50 μM, 0.5 h pretreatment
[3] = cited from earlier work
SCI rats = format: in vivo
small GTPase Ras = test: Quantification of Ras activation (GST-Raf-1 Ras binding domain); format: cell-based, rat; conditions: D-PDMP 50 μM pretreatment; LPS/IFN 5 mins
Method: Quantification of Ras Activation. After stimulation, primary astrocytes in 6 well plates were washed with PBS and lysed in membrane lysis buffer (MLB; 0.5 ml of 25 mM HEPES, pH7.5, 150 mM NaCl, 1% Igepal CA-630, 0.25% sodium deoxycholate, 10% glycerol, 10 mM MgCl2, 1 mM EDTA, 25 mM NaF, 1 mM of sodium orthovanadate, and EDTA free Complete™ protease inhibitor cocktail). After centrifugation (5,000×g) at 4° C. for 5 min, supernatant was used for Ras activation assay. One hundred μg of supernatant was used for binding with agarose conjugated Ras-binding domain (RBD) of Raf-1 which was expressed in BL21 (Invitrogen) Escherichia coli strain transformed by pGEX-2T-GST-RBD in the presence of 0.1 mM of IPTG as described previously (Herrmann et al., 1995). The binding reaction was performed at 4° C. for 30 min in MLB. Following washing with MLB three times, Ras-RBD complex were denatured by adding of 2×SDS sample buffer. Ras protein was identified by western immunoblot analysis with Ras antibodies from Upstate Biotechnology.

[4] = D-PDMP 20 mg/kg, 24 hrs following injury

CCCCCCCCCC(=O)NC(CN1CCOCC1)C(O)c1ccccc1.Cl [D-PDMP, D-threo-1-Phenyl-2-decanoylamino-3-morpholino-1-propanol HCl]
LPS/IFN induced NO production (iNOS [1]): inhibited | iNOS protein and mRNA levels (iNOS [1]): inhibited | production of nitric oxide (NO) (iNOS [2]; LPS/IFN 1 μg/ml, 10 U/ml, 24 hrs): dose dependent decrease | mRNA and protein levels of iNOS (iNOS [2]; LPS/IFN, mRNA 6 hrs, protein 24 hrs): dose dependent decrease | solubility in water [3]: soluble | iNOS mRNA and protein expression at the site of injury (SCI rats; D-PDMP 20 mg/Kg i.p. within 10 minutes following SCI, 12 hrs): markedly suppresses; also recorded: significantly lower | GFAP expression (immunofluorescence, lesion epicenter) (SCI rats; [4]): significantly reduced | iNOS expression (immunofluorescence, lesion epicenter) (SCI rats; [4]): significantly reduced | SCI induced white matter vacuolization and tissue necrosis (H&E) (SCI rats; D-PDMP treated SCI rats): inhibited | apoptosis of neurons and other cells (TUNEL/NeuN) (SCI rats; D-PDMP treated SCI rats): protection against apoptosis | demyelinization (LFB staining) (SCI rats; D-PDMP treated SCI rats): attenuated | adverse effect on neuronal survival (SCI rats; D-PDMP treated sham operated animals): no adverse effect | LPS/IFN mediated activation of Ras (small GTPase Ras): reduced
